Reference: article PMC8067721 (Pharmaceutics, 2021)

Assays:
NTRS2 = system: NTRS2; parameters: method as in PMID 25157640; conditions: cited from earlier work
[1] = system: NT receptors (NTRS1, NTRS2, NTRS3) on HT-29 cells; assay: In vitro specific binding / competition assay with all NT receptors blocked; parameters: species or system human; conditions: antagonists applied together: 70 nM NTRC 824, 30 nM SR 48692, 10 nM SR 142948, […]; uptake profile almost linear
Procedure: In order to evaluate the specific binding due to the exclusive interaction of the peptide with its receptors, a competition assay was performed. This assay in which all NT receptors are blocked before incubating the labelled peptide is intended to highlight non-specific binding of NT to the cells. […] For this assessment, three different NT receptors antagonists were used, each having a preferential increased affinity for one of the receptors, allowing the blocking of all NTRs at the same time:
Afterwards, the medium containing unbound antagonists was removed and the cells were washed with 2 mL of fresh DMEM medium.

HT-29 cells = system: HT-29 cells; parameters: method as in PMID 9023294; conditions: cited from earlier work

Row | Compound | selectivity for NTRS2 over NTRS1 (NTRS2) | effect of antagonists on ^68Ga-DOTA-NT binding to colon HT-29 tumour cells [1] | inhibition of [^125I]ITyr^3-NT specific binding to HT-29 cells (HT-29 cells)
1 | Cc1ccc(S(=O)(=O)Nc2ccc3c(c2)c(C(=O)C(F)(F)F)cn3CC(=O)N[C@@H](CC(C)C)C(=O)O)cc1 [NTRC 824, N-[2-[5-[[(4-Methylphenyl)sulfonyl]amino]-3-(trifluoroacetyl)-1H-indol-1-yl]acetyl]-L-leucine] | 150 fold | inhibit | 
2 | COc1cccc(OC)c1-c1cc(C(=O)NC2(C(=O)O)C3CC4CC(C3)CC2C4)nn1-c1ccnc2cc(Cl)ccc12 (centres unmarked) [SR 48692, 2-[[1-(7-chloroquinolin-4-yl)-5-(2,6-dimethoxyphenyl)-1H-pyrazol-3-carbonyl]amino] adamantane-2-carboxylic acid] |  | inhibit | 
3 | 2-[[5-(2,6-dimethoxyphenyl)-1-(4-(N-(3-dimethylaminopropyl)-N-methylcabamoyl)-2-isopropylphenyl)-1H-pyrazole-3-carbonyl]amino]adamantane-2-carboxylic acid [SR 142948] |  | inhibit | completely inhibits
